Experimental data published in patent US20120219613A1 (priority 2009, published 2012).
Several values for one entry are separate records, joined by “and”; a condition that tells them apart may be missing. Equal entries are not always repeated. Where two headings read alike, the source gives them in different places.

Experiments:
[1] = tested on: NiV-pVSV; experiment: microbe, parasite or virus in culture; format: cell-based, Nipah virus envelope pseudotyped onto VSV
[2] = tested on: pVSV particles
[3] = tested on: enveloped viruses; settings: cited from earlier work
[4] = tested on: enveloped viruses, such as influenza, HIV-1 and TBEV; settings: cited from earlier work
[5] = Vesicular stomatitis virus, Vero

Row | Compound | antiviral activity in SAR discussion [1] | IC50 [1] | IC50 [1, 5] | other results
1 | C=CCN1C(=O)S/C(=C\c2ccc(-c3ccccc3)o2)C1=O [LJ-025, (Z)-3-Allyl-5-((5-phenylfuran-2-yl)methylene)thiazolidine-2,4-dione] | completely inactive both in vitro and in vivo |  |  | IC50 (μM) [1]: Inactive; virion membrane morphology by EM [2]: not
2 | CCN1C(=O)/C(=C/c2ccc(-c3cccc(F)c3)o2)SC1=S [LJ-007, (Z)-3-Ethyl-5-[5-(3-fluorophenyl)-2-furyl]methylene-4-oxothiazolidine-2-thione] |  | 1450 nM | 2500 nM | 
3 | (Z)-3-(2,4-Dioxo-5-((5-phenylfuran-2-yl)methylene)thioxothiazolidin-3-yl) propyl-5-(2-oxohexahydro-1H-thieno[3,4-d]imidazol-4-yl)pentanoate [LJ-037] |  |  |  | IC50 (μM) [1]: Inactive
4 | C=CCN1C(=O)C(Cc2ccc(-c3ccccc3)o2)SC1=S (stereo not drawn) [LJ-033, 3-Allyl-5-((5-phenylfuran-2-yl)methyl)-4-oxothiazolidin-2-thione] | completely inactive |  |  | IC50 (μM) [1]: Inactive
5 | CN1C(=O)/C(=C/c2ccc(-c3ccccc3)o2)SC1=S [LJ-005, (Z)-3-Methyl-5-(5-phenyl-2-furyl)methylene-4-oxothiazolidine-2-thione] |  | 1220 nM | 1500 nM | 
6 | C#CCN1C(=O)/C(=C/c2ccc(-c3ccccc3)o2)SC1=S [LJ-032, (Z)-3-(2-propynyl)-5-(5-phenyl-2-furyl)methylene-4-oxothiazolidine-2-thione] |  |  | 1030 nM | 
7 | CCN1C(=O)/C(=C/c2ccc(-c3ccccc3[N+]#N)o2)SC1=S.F[B-](F)(F)F [LJ-020, (Z)-3-Ethyl-5-[5-(2-diazoniophenyl)-2-furyl]methylene-4-oxothiazolidine-2-thione tetrafluoroborate] | tolerated but led to generally lower activity |  |  | 
8 | CCN1C(=O)/C(=C/c2ccc(C)o2)SC1=S [LJ-013, (Z)-3-ethyl-5-((5-methylfuran-2-yl)methylene)-2-thioxothiazolidin-4-one] |  |  |  | IC50 (μM) [1]: Inactive
9 | CCN1C(=O)/C(=C/c2ccc(-c3ccccc3)s2)SC1=S [LJ-018, (Z)-3-ethyl-5-((5-phenylthiophen-2-yl)methylene)-2-thioxothiazolidin-4-one] | retained activity, albeit at slightly reduced levels | 2650 nM | 4100 nM | 
10 | O=C1NC2CSC(CCCCC(=O)OCCCN3C(=O)/C(=C/c4ccc(-c5ccccc5)o4)SC3=S)C2N1 (stereo not drawn) [LJ-024] | retained good activity |  |  | IC50 ([1]; read-out: IC50): 1900 nM and 1770 nM
11 | CCN1C(=O)S/C(=C\c2ccc(-c3ccccc3[N+](=O)[O-])o2)C1=S [LJ-030, (Z)-3-ethyl-5-((5-(2-nitrophenyl)furan-2-yl)methylene)-2-oxothiazolidin-4-thione] |  |  | 490 nM | 
12 | CCN1C(=O)/C(=C/c2ccc(-c3ccccc3[N+](=O)[O-])o2)SC1=S [LJ-015, (Z)-3-ethyl-5-((5-(2-nitrophenyl)furan-2-yl)methylene)-2-thioxothiazolidin-4-one] |  | 1030 nM | 1300 nM | 
13 | CCN1C(=O)/C(=C/c2ccc(-c3ccccc3OC)o2)SC1=S [LJ-010, (Z)-3-Ethyl-5-[5-(2-methoxyphenyl)-2-furyl]methylene-4-oxothiazolidine-2-thione] |  | 400 nM | 800 nM | 
14 | C=CCN1C(=S)S/C(=C\c2ccc(-c3ccccc3)o2)C1=S [LJ-027] |  |  |  | IC50 ([1]; read-out: IC50): 900 nM
15 | CCN1C(=O)/C(=C/c2cccc(-c3ccccc3)c2)SC1=S [LJ-019, (Z)-5-(Biphenyl-3-ylmethylene)-3-ethyl-2-thioxothiazolidin-4-one] | inactive |  |  | IC50 (μM) [1]: Inactive
16 | CCN1C(=O)/C(=C/c2ccc(-c3ccccc3O)o2)SC1=S [LJ-016, (Z)-3-Ethyl-5-((5-(2-hydroxyphenyl)furan-2-yl)methylene)-2-thioxothiazolidin-4-one] | tolerated but led to generally lower activity | 2350 nM | 2200 nM | 
17 | CCN1C(=O)/C(=C/c2ccc(-c3cccc(OC)c3)o2)SC1=S [LJ-011, (Z)-3-Ethyl-5-[5-(3-methoxyphenyl)-2-furyl]methylene-4-oxothiazolidine-2-thione] |  | 1160 nM | 1500 nM | 
18 | CC(=O)NCCCN1C(=O)/C(=C/c2ccc(-c3ccccc3)o2)SC1=S [LJ-034, (Z)—N-(3-(4-Oxo-5-((5-phenylfuran-2-yl)methylene)-2-thioxothiazolidin-3-yl)propyl)acetamide] |  |  |  | IC50 (μM) [1]: Inactive
19 | CCN1C(=O)/C(=C/c2ccco2)SC1=S [LJ-014, (Z)-3-ethyl-5-(furan-2-ylmethylene)-2-thioxothiazolidin-4-one] |  |  |  | IC50 (μM) [1]: Inactive
20 | CCN1C(=O)/C(=C/c2ccc(-c3ccccc3N)o2)SC1=S [LJ-017, (Z)-5-((5-(2-Aminophenyl)furan-2-yl)methylene)-3-ethyl-2-thioxothiazolidin-4-one] | tolerated but led to generally lower activity | 1960 nM | 3400 nM | 
21 | CCN1C(=O)/C(=C/c2cnc(-c3ccccc3)o2)SC1=S [LJ-023, (Z)-3-Ethyl-5-((2-phenyloxazol-5-yl)methylene)-2-thioxothiazolidin-4-one] | retained activity, albeit at slightly reduced levels | 2400 nM | 2500 nM | 
22 | C=CCN1C(=O)S/C(=C\c2ccc(-c3ccccc3)o2)C1=S [LJ-029, (Z)-3-allyl-5-(5-phenyl-2-furyl)methylene-2-oxothiazolidine-4-thione] |  |  | 4320 nM | 
23 | CCCCCCCCCCCCCCCCCCCCCCO [n-docosanol] |  |  |  | IC50 [3]: millimolar
24 | lysophosphotidylcholine [LPC] |  |  |  | required molar concentration (total lipid content) [4]: ≥ 10%
25 | O=C1NC(=S)S/C1=C\c1ccc(-c2ccccc2)o1 [LJ-031, (Z)-5-(5-phenyl-2-furyl)methylene-4-oxothiazolidine-2-thione] |  |  | 1040 nM | 
26 | CC(C)(C)OC(=O)NCCCN1C(=O)/C(=C/c2ccc(-c3ccccc3)o2)SC1=S [LJ-036, (Z)-tert-Butyl 3-(4-oxo-5-((5-phenylfuran-2-yl)methylene)-2-thioxothiazolidine-3-yl)propyl carbamate] |  |  |  | IC50 ([1]; read-out: IC50): 740 nM
27 | CCN1C(=S)S/C(=C\c2ccc(-c3ccccc3[N+](=O)[O-])o2)C1=S [LJ-028] |  |  |  | IC50 ([1]; read-out: IC50): 2010 nM
28 | CCCN1C(=O)/C(=C/c2ccc(-c3ccccc3)o2)SC1=S [LJ-003, (Z)-3-Propyl-5-(5-phenyl-2-furyl)methylene-4-oxothiazolidine-2-thione] |  | 950 nM | 900 nM | 
29 | NCCCN1C(=O)/C(=C/c2ccc(-c3ccccc3)o2)SC1=S [LJ-035, (Z)-3-(3-Aminopropyl)-5-((5-phenylfuran-2-yl)methylene)-4-oxothiazolidin-2-thione] |  |  |  | IC50 (μM) [1]: Inactive
